Where two headings read alike, the source gives them in different places.
Experiment: Rat PK PBL cassette (i.v.)
Type: in vivo, Sprague-Dawley rat
Settings: for Kp at 0.25 h: brain and plasma, read-out: Kp (total brain to plasma ratio); for Kp at 0.25 h / AUC / clearance / half-life / MRT / Vd / Kp (total brain to plasma ratio) / CLp / Elim. t1/2 / Vss: male SD rat, 0.2 mg/kg i.v. cassette; for Kp at 0.25 h / Kp (total brain to plasma ratio): 0.25 time point (15 min post dosing); for AUC / clearance / half-life / MRT / Vd / CLp / Elim. t1/2 / Vss: n = 1; for clearance: read-out: CLp; for half-life: read-out: Elim. t1/2 (converted); for Vd: read-out: Vss
Source text: While ML133 has found use as a Kir2.1 tool molecule across many disease models, the in vivo PK of this and related compounds within the dibenzylamine chemotype have not previously been characterized. As a highly efficient method for profiling the PK of a compound set, we therefore examined ML133 (alongside 9 additional next-generation Kir2.1 inhibitors) in our rat PK PBL cassette dosing platform (Table ). − From this experimental setup, administration of a 4-compound bolus dose, plus a standard control, can be used to determine a variety of PK parameters in a high-throughput fashion. Specifically, Sprague–Dawley (SD) rats were given 0.2 mg/kg of each Kir2.1 inhibitor (i.v. dosing, 4 compounds +1 control, total dose 1 mg/kg) with PK measured across set time points up to 24 h. Additionally, a separate cohort of animals was utilized to assess total plasma-brain levels (PBL, ratio reported as Kp) of compound at a 0.25 time point. In this fashion, standard plasma-based PK parameters (elimination t 1/2, […] (MRT), plasma clearance (CLp), and volume of distribution (Vss)) were measured alongside a parallel assessment of total brain exposure.
PK PBL Cassette Experimental Conditions
4 compounds plus one control were formulated as a solution in ethanol, PEG400, and DMSO (1:3:6 v/v, respectively) at a concentration of 1 mg/mL and administered as a single IV dose (1 mL/kg, 0.2 mg/kg per compound, total 1 mg/kg) to male, Sprague Dawley rats (n = 1) via injection into a surgically -implanted jugular vein catheter. Blood samples were collected serially from a surgically implanted carotid artery catheter in each animal over multiple post -administration time points (0.033, 0.117, 0.25, 0.5, 1, 2, 4, 7, and 24 hours) into chilled, K 2EDTA anticoagulant - fortified tubes and immediately placed on wet ice. The blood samples were then centrifuged (1700 rcf, 5 minutes, 4 °C) to ob tain plasma samples, which were stored at -80 °C until analysis […]
For determination of the brain over plasma ratio (K p), the same cassette of compounds plus control were formulated in ethanol, PEG400, and DMSO (1:3:6 v/v, respectively) and administered as a single IV dose (1 mL/kg, 0.2 mg/kg per compound, total 1 mg/kg) to male, Sprague Dawley rats ( n = 1) via injection into a surgically-implanted jugular vein catheter. At 15 min post dosing, blood sample was collected terminally into chilled, K 2EDTA anticoagulant-fortified tube and immediately placed on wet ice. The bloo d sample was then centrifuged (1700 rcf, 5 minutes, 4 °C) to obtain plasma sample. At the same post-administration time point, whole brain sample was obtained by rapid dissection, rinsed with PBS, and immediately frozen in individual tissue collection box (dry ice). All brain and plasma samples were stored at -80 °C until […]
Samples preparation for bioanalysis
Plasma samples from the in-life phase of the study were thawed at ambient temperature (benchtop), and then aliquots (20 µL per sample) were transferred to a 96-shallow-well (V-bottom) plate. Matrix-matched quality control (QC) samples and a standard curve of each analyte (1 mg/mL DMSO stock solution) were prepared in blank rat plasma (K2EDTA-treated) via serial dilution and transferred (20 µL each) to the plate along with multiple blank plasma samples. MeCN (120 µL) containing IS (10 nM carbamazepine) was added to each well of the plate to precipitate protein. The plate was then centrifuged (4000 rcf, 5 minutes, ambient temperature), and resulting supernatants (60 µL each) were transferred to a new 96-shallow-well (V-bottom) plate containing an equal volume (60 µL per well) of water (Milli-Q purified). The plate was then sealed in preparation for LC-MS/MS analysis.
Preparation of brain samples was identical to that of plasma samples except for the following modifications. While thawing, brains were weighed (inside their collection boxes using a universal empty collection box tare weight) and then subjected to mechanical homogenization […]

[1] = Sprague-Dawley, plasma, iv, read-out: AUC
[2] = Sprague-Dawley, plasma, iv, read-out: MRT

Row | SMILES | Kp at 0.25 h (Sprague-Dawley, iv) | AUC [1] [ng·h/mL] | clearance (Sprague-Dawley, plasma, iv) [mL/min/kg] | half-life (Sprague-Dawley, plasma, iv) [h] | MRT [2] [h] | Vd (Sprague-Dawley, plasma, iv) [L/kg] | Fold longer t1/2 compared to ML133 (rat i.v. cassette) [fold] | Fold lower overall plasma clearance compared to ML133 (rat i.v. cassette) [fold] | Kp (total brain to plasma ratio) | AUC [ng·h/mL] | CLp [mL/min/kg] | Elim. t1/2 [h] | MRT [h] | Vss [L/kg]
1 | COc1ccc(CNCc2ccc3c(c2)OC(F)(F)O3)cc1 [Compound 5h] | 2.13 | 110 | 30.4 | 1.33 | 0.87 | 1.58 |  |  |  |  |  |  |  | 
2 | COc1ccc(CNCc2cccc(-c3ccccc3)c2)cc1 [Compound 5j] | 4.23 | 105 | 31.7 | 1.18 | 1 | 1.9 |  |  |  |  |  |  |  | 
3 | COc1ccc(CNCc2ccc(-c3ccccc3)cc2)cc1 [Compound 5k] | 1.82 | 148 | 22.6 | 1.68 | 1.08 | 1.46 |  |  |  |  |  |  |  | 
4 | COc1ccc(CNCc2ccc(-c3cccc(F)c3)cc2)cc1 [Compound 5p] | 2.27 | 109 | 30.6 | 0.69 | 0.76 | 1.39 |  |  |  |  |  |  |  | 
5 | COc1ccc(CNCc2ccc(-c3cccc(OC)c3)cc2)cc1 [Compound 5s, 1-(3′-Methoxy-[1,1’-biphenyl]-4-yl)-N-(4-methoxybenzyl)methanamine] | 1.81 | 189 | 17.7 | 1.56 | 0.99 | 1.06 |  |  |  |  |  |  |  | 
6 | COc1ccc(CNCc2ccc(-c3cccc(C#N)c3)cc2)cc1 [Compound 5t] | 1.25 | 165 | 20.2 | 1.66 | 0.99 | 1.2 |  |  |  |  |  |  |  | 
7 | [2H]C([2H])([2H])Oc1ccc(CNCc2cccc3ccccc23)cc1 [Compound 7] | 3.3 | 146 | 22.8 | 1.39 | 1.24 | 1.7 | ~2 | ~1.4 |  |  |  |  |  | 
8 | [2H]C([2H])([2H])Oc1ccc(CNCc2ccc(-c3cccc(OC)c3)cc2)cc1 [Compound 9] |  |  |  |  |  |  |  |  | 2.15 | 131 | 25.4 | 1.56 | 1.02 | 1.55
9 | [2H]C([2H])([2H])Oc1cccc(-c2ccc(CNCc3ccc(OC)cc3)cc2)c1 [Compound 11] |  |  |  |  |  |  |  |  | 1.94 | 127 | 26.2 | 1.54 | 0.81 | 1.27
10 | [2H]C([2H])([2H])Oc1ccc(CNCc2ccc(-c3cccc(OC([2H])([2H])[2H])c3)cc2)cc1 [Compound 13] |  |  |  |  |  |  |  |  | 2.06 | 126 | 26.4 | 1.59 | 1.00 | 1.58
11 | COc1ccc(CNCc2cccc3ccccc23)cc1 [ML133, N-(4-methoxybenzyl)-1-(naphthalen-1-yl)methanamine, reference compound] | 3.36 | 104 | 31.9 | 0.75 | 0.78 | 1.5 |  |  |  |  |  |  |  | 

Source: publication PMC12434521, “Characterization of Next-Generation Inhibitors for the Inward-Rectifier Potassium Channel Kir2.1: Discovery of VU6080824” (ACS Medicinal Chemistry Letters, 2025)
